Experimental data: PubChem BioAssay (NCI)
“And” between values parts separate entries of the source, which are not always exact repeats. Equal values may be shown once.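 Results reflect a 48-hour exposure of cells in 96-well plates to compound at five concentrations. GI50 is the concentration that inhibits growth by half. Definition used: TGI = concentration required for complete inhibition of growth.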

Assays:
Assay in all cases: NCI anticancer screen, dose series, 48 h
OVCAR-3 ovarian = system: OVCAR-3 ovarian
RXF 393 renal = system: RXF 393 renal
BT-549 breast = system: BT-549 breast
A498 renal = system: A498 renal
SK-OV-3 ovarian = system: SK-OV-3 ovarian
786-0 renal = system: 786-0 renal
HL-60(TB) leukemia = system: HL-60(TB) leukemia
MDA-MB-231 breast = system: MDA-MB-231 breast
MCF7 breast = system: MCF7 breast
A549 NSCLC = system: A549 NSCLC

Compound	GI50 (OVCAR-3 ovarian)	TGI (OVCAR-3 ovarian) [µM]	GI50 (RXF 393 renal) [µM]	TGI (RXF 393 renal) [µM]	GI50 (BT-549 breast)	TGI (BT-549 breast) [µM]	GI50 (A498 renal)	TGI (A498 renal)	GI50 (SK-OV-3 ovarian)	TGI (SK-OV-3 ovarian) [µM]	GI50 (786-0 renal)	TGI (786-0 renal) [µM]	GI50 (HL-60(TB) leukemia)	TGI (HL-60(TB) leukemia) [µM]	GI50 (MDA-MB-231 breast)	TGI (MDA-MB-231 breast) [µM]	GI50 (MCF7 breast)	TGI (MCF7 breast) [µM]	GI50 (A549 NSCLC)	TGI (A549 NSCLC) [µM]
N#Cc1nc(-c2ccc(F)cc2)oc1S(=O)(=O)N1CCCCC1	1.86 µM	3.48	1.91	3.38	2.24 µM	5.74	14.1 µM	27.4 µM	24.3 µM	91.2	1.8 µM	3.53	2.54 µM	7.02	1.86 µM	3.54	1.69 µM	3.82	6.9 µM	27.1
O=C(O)C[C@H](O)C[C@H](O)/C=C/c1c(C2CC2)nc2ccccc2c1-c1ccc(F)cc1	16.8 µM and 12.1 µM	> 100			18.1 µM and 4.11 µM	> 100	0.202 µM and 0.036 µM	0.908 µM and 0.226 µM	26.1 µM and 6.6 µM	> 100	21.6 µM and 2.86 µM	> 100	4.55 µM and 25.6 µM	> 100	0.287 µM and 0.0564 µM		54.7 µM and > 21.9 µM	> 100	> 100 µM and 18.7 µM	> 100
Cc1ccc(/C=C(\C#N)c2cc3ccccc3n2C)cc1	0.361 µM		0.172	0.565	0.742 µM	> 26.7	0.217 µM	0.808 µM	> 100 µM	> 100	0.709 µM	> 100	0.277 µM	2.56	0.671 µM	> 100	0.305 µM	> 100	0.463 µM	> 100
OCCCCC#Cc1ccccc1C#Cc1ccc(O)cc1	14.8 µM	30.4	0.622	22.4	14.1 µM	28.8	20.7 µM	38.5 µM	20 µM	40.2	19.4 µM	36.2	18.3 µM	40.5	7.55 µM	21.4	17.4 µM	49.2	15.8 µM	30.8
COC(=O)c1c2c(c(C)[n+]([O-])c1C)C(=O)C=C(NCc1ccccc1)C2=O	0.277 µM	0.791	1.23	2.73	1.45 µM	2.92	1.57 µM	2.96 µM	2.03 µM	4.18	2.33 µM	6.88	0.317 µM	1.19	0.326 µM	2.68	0.26 µM	0.892	1.1 µM	3.46
O=C1CCc2c(sc3[nH]c(=S)n(-c4cc(C(F)(F)F)cc(C(F)(F)F)c4)c(=O)c23)C1	0.358 µM	1.49	0.392	5.16	0.325 µM	1.99	2.15 µM	7.44 µM	0.947 µM	5.54	0.602 µM	10.5	0.304 µM	1.21	0.336 µM	1.45	0.447 µM	16.4	0.707 µM	11.3
COC(C)(C)[C@@H](O)[C@H](O)C[C@H](C)C1=C2CC[C@@H]3[C@@]4(C)CC[C@@H](OC(C)=O)C(C)(C)[C@@H]4C[C@@H](OC4OC(COC(C)=O)C(O)C(O)C4O)[C@@]3(C)[C@]2(C)CC1 (some centres not stated)	7.37 µM	21.1	6.96	19.5	15.1 µM	28.7	14.2 µM	27.6 µM		28.7	14.4 µM	27.5	3.6 µM	16	11.6 µM	23.8	2.62 µM	12.4	7.77 µM	20.3
O=C(NCCN1CCOCC1)OCc1nc2nc(Cl)nc(N3CCOCC3)c2[nH]1	1.15 µM	7.18	1.87	6.78	3.48 µM	> 100	1.68 µM	6.66 µM	5.28 µM	> 100	23.7 µM	> 100	1.61 µM	6.83	2.91 µM	> 100	2.02 µM	> 100	9.33 µM	> 100
COc1ccccc1/C=C1\COc2ccc(-c3ccccc3)cc2C1=O	2.58 µM	5.48			1.55 µM	4.89	2.53 µM	6.43 µM	3.7 µM	> 100	4.31 µM	> 100	1.86 µM	> 100	3.66 µM	17.7	2.4 µM		2.61 µM	8.9
NC(=N\N=C/c1ccc(O)cc1)/C(N)=N\N=C/c1ccc(O)cc1	> 100 µM	> 100	84.7	> 100	77.5 µM	> 100	> 100 µM	> 100 µM	44.8 µM	> 100	21.1 µM	> 100	0.251 µM		10.7 µM	> 100	> 100 µM	> 100	> 25.5 µM	> 100
COc1ccc([C@H](CC(=O)O)N2CCN(CCCc3ccc4c(n3)NCCC4)C2=O)cn1	> 100 µM	> 100	0.136	> 100	0.153 µM	0.296	0.0116 µM	0.0633 µM	> 100 µM	> 100	0.346 µM	> 100	> 100 µM	> 100	0.254 µM		0.247 µM	0.902	3.07 µM	> 30.3
CC1=CC2C(C(O)CC3(C)C2CC(C)C32OCOC23COCO3)C2(C)C/C(=C/O)C(=O)C=C12 (configuration not stated)	2.05 µM	3.59	1.81	3.31	1.62 µM	3.17	2.83 µM	14.8 µM	2.73 µM	6.42	1.83 µM	3.55	2.1 µM	4.63	1.75 µM	3.49	2.69 µM	10.1	3.02 µM	10.7
COc1c(C(C)=O)c(OCCCCOc2c(C(C)=O)c(OC)c3ccoc3c2OC)c(OC)c2occc12	3.75 µM	> 100			1.61 µM	5.22	> 100 µM	> 100 µM	> 100 µM	> 100	> 100 µM	> 100	1.85 µM	4.02		> 100	3.11 µM	> 100	3.35 µM	> 100
